Laboratory results reported in patent EP4722195A1, “PH-SENSITIVE CATIONIC LIPID AND LIPID NANOPARTICLES” (National University Corporation Hokkaido University, priority 2023, dated 2024).
Where two headings read alike, the source gives them in different places.

Key:
[1] = Zeta potential of lipid nanoparticles; type: physicochemical
Method: (§1) The average particle size (number average value), ζ-average particle size, and polydispersity index (PdI) of the lipid nanoparticles in PBS(-) (pH 7.4), and the zeta potential in 10 mM HEPES buffer (pH 7.4) were measured using an analyzer "Zetasizer Nano ZS ZEN3600" (manufactured by Malvern) utilizing dynamic light scattering.

[2] = tested on: spleen; assay: Fluc activity in the spleen of mice administered Fluc mRNA-loaded lipid nanoparticles; type: in vivo, BALB/c mice; conditions: Example 22, Fig. 1; TxT/DSPC/chol/PEG-DMG=50/15/35/1.5 (mol%); 0.1 mg mRNA/kg intravenous; six hours after administration; comparison among TxT lipids
Method: (§2) Lipid nanoparticles were administered to mice by intravenous injection into the tail vein using a 27G needle. Unless otherwise specified, BALB/c mice (4 to 5 weeks old, female) were used.
(§3) First, BALB/c mice (female, 4 weeks old) were intravenously injected with lipid nanoparticles encapsulating Fluc mRNA (Fluc mRNA-loaded lipid nanoparticles) at a dose of 0.1 mg mRNA/kg. Six hours after intravenous injection, the mice were euthanized, each tissue was collected, frozen in liquid nitrogen, and stored at -80°C. The tissues were homogenized in passive lysis buffer (manufactured by Promega) using a bead-type cell disruptor (Micro Smash MS-100R, manufactured by TOMY Seiko). Tissue debris was removed by centrifugation, and the supernatant was collected. Fluc activity in the supernatant was measured using the Luciferase Assay System (E1500, manufactured by Promega) according to the manufacturer's protocol. Luminescence was measured using a luminometer (Luminescencer-PSN, manufactured by ATTO). Protein concentration was determined using a commercially available assay kit (BCA Protein Assay Kit, manufactured by Pierce). Fluc activity was expressed as relative light units (RLU) per mg of protein. […]

[3] = tested on: liver; assay: EGFP expression in liver tissue sections of mice administered EGFP mRNA-loaded lipid nanoparticles (confocal microscopy); type: in vivo, Balb/c mice; conditions: Example 27, Fig. 6; EGFP mRNA-loaded lipid nanoparticles TxT/DSPC/chol/PEG-DMG=50/3/47/1.5 (mol%); 24 hours post-administration
Method: Subsequently, each EGFP mRNA-loaded lipid nanoparticle was administered to Balb/c mice at a dose of 0.2 mg mRNA/kg. At 23 hours and 50 minutes post-administration, fluorescently labeled lectin (DyLight-649 Lycopersicon (Tomato) Lectin) was intravenously injected via the tail vein at 40 µg/mouse to fluorescently label vascular endothelial cells. At 24 hours after administration of the lipid nanoparticles, the mice were euthanized, and their livers were collected to prepare tissue sections. For nuclear staining, the tissue sections were immersed in a nuclear staining solution (1 µg/mL Hoechst 33342 dissolved in PBS(-)), cooled on ice, and incubated for at least 30 minutes in the dark. The stained tissue sections were then observed using a confocal laser scanning microscope. Subsequently, in the same manner as Example 26, each EGFP mRNA-loaded lipid nanoparticle was administered to Balb/c mice. At 23 hours and 50 minutes post-administration, fluorescently labeled lectin was administered. At 24 hours after administration of the lipid nanoparticles, the mice were euthanized, and their livers were collected to prepare tissue sections. Each tissue section was observed using a confocal laser scanning microscope. In the figure, the upper panels show fluorescence images of EGFP, and the lower panels show fluorescence images of vascular endothelial cells (fluorescently labeled lectin).

[4] = Average particle size and polydispersity index of lipid nanoparticles (dynamic light scattering); type: physicochemical
Method: as §1

[5] = Encapsulation rate of lipid nanoparticles (Ribogreen); type: physicochemical
Method: The encapsulation rate of the lipid nanoparticles was determined by measuring the amount of encapsulated nucleic acid (mRNA) using Ribogreen (manufactured by Life Technologies), which is an RNA intercalator. The mRNA amount was quantified based on a calibration curve prepared from a series of diluted mRNA solutions at known concentrations.
Specifically, 10 mM HEPES buffer (pH 7.4), 10 w/v% Triton X-100, and Ribogreen were mixed at 978.8 µL, 20 µL, and 1.25 µL per 10 wells, respectively, to obtain a Triton(+) buffer. A Triton(-) buffer was obtained in replacing Triton X-100 with 10 mM HEPES buffer (pH 7.4). 100 µL/well of the sample was added to a black 96-well plate for fluorescence measurement, and 100 µL/well of Triton(+) buffer or Triton(-) buffer was added. After the plate was gently shaken on a shaking incubator (SI-300, manufactured by AS ONE) (700 rpm, 30 seconds), the fluorescence intensity of each well was measured using a microplate reader (VARIOSKAN LUX, manufactured by Thermo Fisher Scientific) (wavelength Ex/Em=500 nm/525 nm), and the nucleic acid encapsulation rate (%) was calculated.

[6] = Apparent pKa of lipid nanoparticles (TNS)
[7] = tested on: factor VII (F7); conditions: mouse liver; siRNA; cited from earlier work
[8] = lipid nanoparticles, tns
[9] = tested on: various tissues; assay: Fluc activity in various tissues of mice administered Fluc mRNA-loaded lipid nanoparticles; type: in vivo, BALB/c mice; conditions: Example 31, Fig. 10; Fluc mRNA-loaded lipid nanoparticles containing 3 mol% DSPC; N = 3
Method: as §2, §3

[10] = tested on: liver; assay: Fluc activity in the liver of mice administered Fluc mRNA-loaded lipid nanoparticles; type: in vivo, BALB/c mice; conditions: Example 31, Fig. 10; Fluc mRNA-loaded lipid nanoparticles containing 3 mol% DSPC; N = 3
Method: as §2
First, BALB/c mice (female, 4 weeks old) were intravenously injected with lipid nanoparticles encapsulating Fluc mRNA (Fluc mRNA-loaded lipid nanoparticles) at a dose of 0.1 mg mRNA/kg. Six hours after intravenous injection, the mice were euthanized, each tissue was collected, frozen in liquid nitrogen, and stored at -80°C. The tissues were homogenized in passive lysis buffer (manufactured by Promega) using a bead-type cell disruptor (Micro Smash MS-100R, manufactured by TOMY Seiko). Tissue debris was removed by centrifugation, and the supernatant was collected. Fluc activity in the supernatant was measured using the Luciferase Assay System (E1500, manufactured by Promega) according to the manufacturer's protocol. Luminescence was measured using a luminometer (Luminescencer-PSN, manufactured by ATTO). Protein concentration was determined using a commercially available assay kit (BCA Protein Assay Kit, manufactured by Pierce). Fluc activity was expressed as relative light units (RLU) per mg of protein.
Subsequently, lipid nanoparticles encapsulating Fluc mRNA prepared using TxT-5-5A10, TxT-5-5A12, TxT-5-5A12β, TxT-5-5A14, and TxT-5-5A16 were administered to mice to evaluate luciferase expression levels (Fluc activity) in various tissues. Specifically, each Fluc mRNA-loaded lipid nanoparticle was administered to Balb/c mice at a dose of 0.1 mg mRNA/kg. Six hours after administration, the mice were euthanized, and their organs were collected to measure Fluc activity (RLU/mg protein) (N = 2 or 4).

[11] = Table 1, Fluc mRNA-loaded lipid nanoparticles, TxT/DSPC/chol/PEG-DMG=50/15/35/1.5 (mol%)
[12] = Table 3, Fluc mRNA-loaded lipid nanoparticles, TxT/DSPC/chol/PEG-DMG=50/3/47/1.5 (mol%)
[13] = Table 5, EGFP mRNA-loaded lipid nanoparticles, TxT/DSPC/chol/PEG-DMG=50/3/47/1.5 (mol%), total flow rate 3.0 mL/min
[14] = Table 8 (Example 32), lipid nanoparticles for TTR-targeted genome editing, Cas9-mRNA and TTR-gRNA 1:2 (N/P = 6.0), TxT/DSPC/chol/PEG-DMG = 50/3/47/1.5 (mol%)
[15] = Table 4, Fluc mRNA-loaded lipid nanoparticles, TxT-5-5A14/DSPC/chol/PEG-DMG=50/3/47/1.5, SM-102, ALC-0315 or MC3/DSPC/chol/PEG-DMG=50/10/40/1.5 (mol%)

| Molecule | ζ-potential [1, 12] | ζ-potential [1, 13] | fluorescence of EGFP in the liver tissues [3] | Pdl [4, 12] | number average particle size [4, 12] | ζ-average particle size [4, 12] | Pdl [4, 13] | number average particle size [4, 13] | ζ-average particle size [4, 13] | mRNA concentration [5, 12] | mRNA encapsulation rate [5, 12] | mRNA concentration [5, 13] | mRNA encapsulation rate [5, 13] | ED50 in factor VII (F7) knockdown [7] | pKa [8] | also measured |
| --- | --- | --- | --- | --- | --- | --- | --- | --- | --- | --- | --- | --- | --- | --- | --- | --- |
| CCCCCCN(CCCCCC)C(=O)CCCC(=O)OCC(COC(=O)CCCC(=O)N(CCCCCC)CCCCCC)(COC(=O)CCCC(=O)N(CCCCCC)CCCCCC)NC(=O)CCN1CCCCC1 [TxT-5-5A12, 2-(((5-(dihexylamino)-5-oxopentanoyl)oxy)methyl)-2-(3-(piperidin-1-yl)propanamido)propane-1,3-diyl bis(5-(dihexylamino)-5-oxopentanoate)] | -6.7 mV | -9.4 mV | fluorescence of EGFP was observed | 0.10 | 124.5 nm | 155.2 nm | 0.13 | 80.2 nm | 114.4 nm | 0.019 µg/µL | 85.9% | 0.019 µg/µL | 95.5% |  |  | ζ-potential [1, 11]: -6.7 mV; Fluc activity in the spleen [2]: highest Fluc activity in the spleen; Pdl [4, 11]: 0.08; number average particle size [4, 11]: 124.5 nm; ζ-average particle size [4, 11]: 155.2 nm; mRNA concentration [5, 11]: 0.019 µg/µL; mRNA encapsulation rate [5, 11]: 85.9%; pKa ([6]; Table 1, apparent pKa of Fluc mRNA-loaded lipid nanoparticles, TxT/DSPC/chol/PEG-DMG=50/15/35/1.5 (mol%)): 6.44; pKa [6, 12]: 6.58 |
| CCCCC/C=C\C/C=C\CCCCCCCCOC1(OCCCCCCCC/C=C\C/C=C\CCCCC)CCN(C)CC1 [YSK05] |  |  |  |  |  |  |  |  |  |  |  |  |  | 0.06 mg siRNA/kg |  |  |
| 2-(6-(didodecylamino)-2,6-dioxohexyl)-2-(3-(piperidin-1-yl)propanamido)propane-1,3-diyl bis(5-(didodecylamino)-5-oxopentanoate) [TxT-5-5A24] | -8.9 mV | -4.2 mV | fluorescence of EGFP was observed | 0.14 | 92.2 nm | 133.1 nm | 0.10 | 85.3 nm | 129.5 nm | 0.022 µg/µL | 96.5% | 0.021 µg/µL | 97.3% |  | 6.68 | ζ-potential [1, 14]: -6.5 mV; gene expression in hepatocytes [3]: notably high levels of gene expression; average particle diameter, comparison among TxT lipids ([4]; Example 32, Table 8, lipid nanoparticles for TTR-targeted genome editing): smallest average particle diameter; Pdl [4, 14]: 0.12; number average particle size [4, 14]: 53.1 nm; ζ-average particle size [4, 14]: 73.8 nm; mRNA concentration [5, 14]: 0.541 µg/µL; mRNA encapsulation rate [5, 14]: 98.4% |
| CCCCC/C=C\C/C=C\CCCCCCCCC(CCCCCCCC/C=C\C/C=C\CCCCC)OC(=O)CCCN(C)C [MC3, DLin-MC3-DMA, reference compound] |  |  |  |  |  |  |  |  |  |  |  |  |  | 0.005 mg siRNA/kg |  | ζ-potential [1, 15]: -6.8 mV; Pdl [4, 15]: 0.20; number average particle size [4, 15]: 51.8 nm; ζ-average particle size [4, 15]: 83.6 nm; mRNA concentration [5, 15]: 0.021 µg/µL; mRNA encapsulation rate [5, 15]: 98.8%; pKa [6, 15]: 6.23 |
| 2-((2-(2-((diheptylamino)methyl)cyclohexyl)acetoxy)methyl)-2-(3-(piperidin-1-yl)propanamido)propane-1,3-diyl bis(2-(diheptylcarbamoyl)cyclohexane-1-carboxylate) [TxT-5-4(6)A14] |  |  |  |  |  |  |  |  |  |  |  |  |  |  |  | Fluc activity in the liver, spleen, and lung [9]: Fluc activity was observed in the organs, i.e., liver, spleen, and lungs; Fluc activity in the liver relative to spleen and lung [10]: particularly high activity confirmed in the liver |
| 2-(6-(didecylamino)-2,6-dioxohexyl)-2-(3-(piperidin-1-yl)propanamido)propane-1,3-diyl bis(5-(didecylamino)-5-oxopentanoate) [TxT-5-5A20] | -4.4 mV | -8.7 mV | fluorescence of EGFP was observed | 0.11 | 95.1 nm | 136.2 nm | 0.08 | 108.4 nm | 136.2 nm | 0.018 µg/µL | 98.2% | 0.022 µg/µL | 97.8% |  | 6.53 |  |
